Test system: 817829-284-R-J1-PDC complex spheroids, viability
Assay: Anticancer human tumor 817829-284-R-J1-PDC patient-derived colon adenocarcinoma cell line growth inhibition [GQUAD]
Settings: for IC50: curve of first compound; for viability, T/C: stronger effect = lower value
Method in brief: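 Tumor cells were grown as complex spheroids with HUVEC endothelial cells and mesenchymal stem cells as stroma. G-quadruplex stabilizers were combined with targeted agents over half-log dilutions from near the clinical Cmax, or from 10 microM.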

[1] = second compound 0.0316 µM, first compound 0.0316 µM
[2] = second compound 0.0316 µM, first compound 0.1 µM
[3] = second compound 0.0316 µM, first compound 0.316 µM
[4] = second compound 0.0316 µM, first compound 1 µM
[5] = second compound 0.0316 µM, first compound 3.16 µM
[6] = second compound 0.0316 µM, first compound 10 µM
[7] = second compound 0.1 µM, first compound 0.0316 µM
[8] = second compound 0.1 µM, first compound 0.1 µM
[9] = second compound 0.1 µM, first compound 0.316 µM
[10] = second compound 0.1 µM, first compound 1 µM
[11] = second compound 0.1 µM, first compound 3.16 µM
[12] = second compound 0.1 µM, first compound 10 µM
[13] = second compound 0.316 µM, first compound 0.0316 µM
[14] = second compound 0.316 µM, first compound 0.1 µM
[15] = second compound 0.316 µM, first compound 0.316 µM
[16] = second compound 0.316 µM, first compound 1 µM
[17] = second compound 0.316 µM, first compound 3.16 µM
[18] = second compound 0.316 µM, first compound 10 µM
[19] = second compound 1 µM, first compound 0.0316 µM
[20] = second compound 1 µM, first compound 0.1 µM
[21] = second compound 1 µM, first compound 0.316 µM
[22] = second compound 1 µM, first compound 1 µM
[23] = second compound 1 µM, first compound 3.16 µM
[24] = second compound 1 µM, first compound 10 µM
[25] = second compound 3.16 µM, first compound 0.0316 µM
[26] = second compound 3.16 µM, first compound 0.1 µM
[27] = second compound 3.16 µM, first compound 0.316 µM
[28] = second compound 3.16 µM, first compound 1 µM
[29] = second compound 3.16 µM, first compound 3.16 µM
[30] = second compound 3.16 µM, first compound 10 µM
[31] = second compound 10 µM, first compound 0.0316 µM
[32] = second compound 10 µM, first compound 0.1 µM
[33] = second compound 10 µM, first compound 0.316 µM
[34] = second compound 10 µM, first compound 1 µM
[35] = second compound 10 µM, first compound 3.16 µM
[36] = second compound 10 µM, first compound 10 µM
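Note: spheroids exposed to agents for 7 days before readout.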
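Throughout, for viability, T/C: percent viability relative to DMSO vehicle control taken as 100%.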

`COc1cccc2c1C(=O)c1c(O)c3c(c(O)c1C2=O)CC(O)(C(=O)CO)CC3OC1CC(N)C(O)C(C)O1` (stereo unspecified) + Cc1[nH]c2ccc(F)cc2c1-c1nc2c3cccnc3c3ncccc3c2[nH]1 was tested, and the IC50 (second compound 0.0316 µM) was 88.3 nM, the IC50 (second compound 0.1 µM) was 94.3 nM and the IC50 (second compound 0.316 µM) was 98.7 nM. The IC50 (second compound 1 µM) was 84.4 nM, the IC50 (second compound 3.16 µM) was 64 nM and the IC50 (second compound 10 µM) was < 31.6 nM. For the same molecule, the viability, T/C [1] was 106%, the viability, T/C [2] was 31.4% and the viability, T/C [3] was 35.2%. For the same molecule, the viability, T/C [4] was 9.62%, the viability, T/C [5] was 0.98% and the viability, T/C [6] was 0.2%. It also gave a viability, T/C [7] of 79.8%, a viability, T/C [8] of 46.1% and a viability, T/C [9] of 29.7%. For the same molecule, the viability, T/C [10] was 14%, the viability, T/C [11] was 0.63% and the viability, T/C [12] was 0.15%. For the same molecule, the viability, T/C [13] was 86.2%, the viability, T/C [14] was 44.8% and the viability, T/C [15] was 32.1%. The viability, T/C [16] was 14.2%, the viability, T/C [17] was 0.67% and the viability, T/C [18] was 0.16%. It also gave a viability, T/C [19] of 80.5%, a viability, T/C [20] of 38% and a viability, T/C [21] of 31.3%. It also gave a viability, T/C [22] of 13.7%, a viability, T/C [23] of 1% and a viability, T/C [24] of 0.19%. It also gave a viability, T/C [25] of 80.9%, a viability, T/C [26] of 26.3% and a viability, T/C [27] of 18.9%. For the same molecule, the viability, T/C [28] was 7.18%, the viability, T/C [29] was 0.69% and the viability, T/C [30] was 0.27%. For the same molecule, the viability, T/C [31] was 22.1%, the viability, T/C [32] was 12.8% and the viability, T/C [33] was 11.3%. It also gave a viability, T/C [34] of 3.41%, a viability, T/C [35] of 0.48% and a viability, T/C [36] of 0.46%.
For `CC(C)(O)C1CCC(Nc2ccc3ncc(-c4cccc(C(F)(F)F)c4)n3n2)CC1` (stereo unspecified) + CN(C)c1ccc(Nc2c3ccc(NC(=O)CCN4CCCC4)cc3nc3cc(NC(=O)CCN4CCCC4)ccc23)cc1, the IC50 (second compound 0.0316 µM) was > 10000 nM, the IC50 (second compound 0.1 µM) was 3130 nM and the IC50 (second compound 0.316 µM) was 2570 nM. For the same molecule, the IC50 (second compound 1 µM) was 2260 nM, the IC50 (second compound 3.16 µM) was 2100 nM and the IC50 (second compound 10 µM) was 1170 nM. It also gave a viability, T/C [1] of 102%, a viability, T/C [2] of 100% and a viability, T/C [3] of 111%. For the same molecule, the viability, T/C [4] was 88.4%, the viability, T/C [5] was 35.7% and the viability, T/C [6] was 64.8%. For the same molecule, the viability, T/C [7] was 98%, the viability, T/C [8] was 101% and the viability, T/C [9] was 90.3%. The viability, T/C [10] was 95.9%, the viability, T/C [11] was 39.9% and the viability, T/C [12] was 59.2%. For the same molecule, the viability, T/C [13] was 97.5%, the viability, T/C [14] was 97% and the viability, T/C [15] was 86.8%. For the same molecule, the viability, T/C [16] was 97.1%, the viability, T/C [17] was 33.4% and the viability, T/C [18] was 47.3%. The viability, T/C [19] was 92.9%, the viability, T/C [20] was 103% and the viability, T/C [21] was 95.8%. The viability, T/C [22] was 93.5%, the viability, T/C [23] was 28.9% and the viability, T/C [24] was 35.1%. For the same molecule, the viability, T/C [25] was 96.5%, the viability, T/C [26] was 97.3% and the viability, T/C [27] was 87.9%. For the same molecule, the viability, T/C [28] was 83.3%, the viability, T/C [29] was 31.6% and the viability, T/C [30] was 23.2%. For the same molecule, the viability, T/C [31] was 96%, the viability, T/C [32] was 102% and the viability, T/C [33] was 87.2%. It also gave a viability, T/C [34] of 58.5%, a viability, T/C [35] of 5.62% and a viability, T/C [36] of 2.44%.
`CC[C@@]1(O)C(=O)OCc2c1cc1n(c2=O)Cc2cc3c(CN(C)C)c(O)ccc3nc2-1` + Cc1[nH]c2ccc(F)cc2c1-c1nc2c3cccnc3c3ncccc3c2[nH]1 showed an IC50 (second compound 0.0316 µM) of 47.6 nM, an IC50 (second compound 0.1 µM) of 60.3 nM and an IC50 (second compound 0.316 µM) of 51.7 nM. For the same molecule, the IC50 (second compound 1 µM) was 52.2 nM, the IC50 (second compound 3.16 µM) was 26.5 nM and the IC50 (second compound 10 µM) was < 0.999 nM. The viability, T/C (second compound 0.0316 µM, first compound 0.000999 µM) was 119%, the viability, T/C (second compound 0.0316 µM, first compound 0.00316 µM) was 84.5% and the viability, T/C (second compound 0.0316 µM, first compound 0.00999 µM) was 92.7%. For the same molecule, the viability, T/C [1] was 51.8%, the viability, T/C (second compound 0.0316 µM, first compound 0.0999 µM) was 34.9% and the viability, T/C [3] was 26.6%. The viability, T/C (second compound 0.1 µM, first compound 0.000999 µM) was 98.8%, the viability, T/C (second compound 0.1 µM, first compound 0.00316 µM) was 104% and the viability, T/C (second compound 0.1 µM, first compound 0.00999 µM) was 88.6%. For the same molecule, the viability, T/C [7] was 70.9%, the viability, T/C (second compound 0.1 µM, first compound 0.0999 µM) was 33.1% and the viability, T/C [9] was 27.1%. For the same molecule, the viability, T/C (second compound 0.316 µM, first compound 0.000999 µM) was 90%, the viability, T/C (second compound 0.316 µM, first compound 0.00316 µM) was 111% and the viability, T/C (second compound 0.316 µM, first compound 0.00999 µM) was 101%. The viability, T/C [13] was 63.6%, the viability, T/C (second compound 0.316 µM, first compound 0.0999 µM) was 34.2% and the viability, T/C [15] was 26.1%. The viability, T/C (second compound 1 µM, first compound 0.000999 µM) was 91.8%, the viability, T/C (second compound 1 µM, first compound 0.00316 µM) was 110% and the viability, T/C (second compound 1 µM, first compound 0.00999 µM) was 109%. It also gave a viability, T/C [19] of 64.8%, a viability, T/C (second compound 1 µM, first compound 0.0999 µM) of 32.4% and a viability, T/C [21] of 29.1%. It also gave a viability, T/C (second compound 3.16 µM, first compound 0.000999 µM) of 108%, a viability, T/C (second compound 3.16 µM, first compound 0.00316 µM) of 111% and a viability, T/C (second compound 3.16 µM, first compound 0.00999 µM) of 95.1%. It also gave a viability, T/C [25] of 41.9%, a viability, T/C (second compound 3.16 µM, first compound 0.0999 µM) of 18.2% and a viability, T/C [27] of 15.7%. For the same molecule, the viability, T/C (second compound 10 µM, first compound 0.000999 µM) was 11%, the viability, T/C (second compound 10 µM, first compound 0.00316 µM) was 22.5% and the viability, T/C (second compound 10 µM, first compound 0.00999 µM) was 26.1%. For the same molecule, the viability, T/C [31] was 7.2%, the viability, T/C (second compound 10 µM, first compound 0.0999 µM) was 5.98% and the viability, T/C [33] was 5.1%.

Source: PubChem BioAssay AID2060503 (Molecular Pharmacology Branch, DTP, NCI, 2025)
